Data published in patent US20220339257A1, “METHODS TO INCREASE THE SENSITIVITY AND REVERSING THE RESISTANCE TO DRUGS” (Biomarker Strategies, LLC, priority 2019, published 2022).

Assays:
Type in all cases: cell-based
EGFR WT sample (H1581) = test: Immunocytochemistry biomarker staining; conditions: erlotinib+EM2 combination; WT EGFR smoker samples; 72 hours
Procedure: Cells at the seeding density of 10,000 cells per well were plated in 8 chamber slides in complete RPMI culture medium for overnight. After 24h cells were treated with RPMI media without the serum along with selected dose of erlotinib+EM2 and kept for additional 72 hours in incubation condition set at 37° C. in a humidified atmosphere of 95% air and 5% CO2. The chamber slides were rinsed with PBS before performing ICC staining. An Ambay kit (Catalog #10011A) purchased from Ambay Immune Sensors and Controls, LLC (AISC) (MD, USA) was used to perform ICC staining as per the kit instructions and using poly-HRP from Biogenix (CA, USA) was used to enable signal amplification and detection of specific bound antibody targets. A respective isotype antibody control was be kept for each biomarker. Counterstaining was performed before mounting and analysis.

BICR-16 cells = test: Western blot of protein biomarkers; conditions: IFN-γ (100 ng/mL)+TNF-α (10 ng/mL), 24 hours
Procedure: (§1) MTA and EM effects on protein biomarker expression were measured by western blotting. For the assay cell lines (Ca9-22, PE/CA-PJ15, HTB-38, HPAF-II, CAL27, BICR-16, A-253, Calu-6, PC-9, H1838, RPMI-7951 and A7) were cultured and treated with doses of MTAs alone, EMs alone and in combination and then lysed for protein analysis. This method can readily be conducted under adherent or suspension conditions, manually or on automated instruments, such as SnapPath. A total of 0.3×10^6 cells per well were seeded in 6 well plates with 10% FBS-containing media and incubated for 24 hours. Cells were then treated with MTA and/or EM concentrations for 24 hours. For total protein extraction, briefly, each sample media was collected, and wells were washed with HMS, and the wash was combined with its respective media collection. Cells were then detached using Accutase solution and again collected in its respective sample media and another HMS well wash and collection was performed. All cell solutions were centrifuged, washed with ice-cold PBS, and centrifuged again. Cell pellets were lysed in 250 μL of ice-cold 1× lysis buffer with protease and phosphatase inhibitor cocktails and incubated for 10 minutes on ice. Lysates were clarified with a centrifugation (14,000 rpm) for 10 minutes at 4° C. Cell lysates were quantified using Bio-Rad DC Protein Assay (Bio-Rad Cat. #5000116).
(§2) For all western blots, an equal amount of protein (3-5 μg) was loaded into SDS-polyacrylamide gels (Mini-Protean TGX Precast Gel; Bio-Rad, e.g. 7.5%, Cat. #4561024; 10%, Cat. #4561035; 12%, Cat. #4561045; or 4-15%, Cat. #4561085). Proteins were separated at 215V for at least 30 minutes in 1× Tris/Glycine/SDS buffer (Bio-Rad Cat. #1610772) and transferred to PVDF membranes using a Trans-Blot Turbo (Bio-Rad Cat. #1704155) for 7 minutes in transfer buffer (Trans-Blot Turbo Transfer Kit, Bio-Rad Cat. #1704273). Blots were blocked at room temperature for 1 hour with 5% non-fat dry milk in tris-buffered saline with Tween 20 (TBST; 15 mM Tris-HCl, pH 7.5, 200mMNaCl and 0.1% Tween 20). Membranes were incubated with primary antibodies at 4° C. overnight and at room temperature for 1 hour the next day; all primary antibodies were diluted following manufacturer's specifications in TBST with either 5% BSA or 5% non-fat dry milk. Membranes were washed in TBST for 5 minutes, three times, and incubated with HRP-conjugated secondary antibodies diluted 1:5000 in TBST with 5% non-fat dry milk at room temperature for 1 hour (anti-rabbit IgG, Bio-Rad Cat. #1706515; or anti-mouse IgG, Bio-Rad Cat. #1706516). Membranes were then washed in TBST for 10 minutes, three times, and target proteins were identified using Clarity Western ECL Substrate (Bio-Rad Cat. #1705061) on autoradiography film (GenHunter Cat. #B581, Nashville, Tenn., USA). Other assay types, such as Luminex multiplexed immunoassays, ICC, IHC, flow cytometry, etc. can be used readily.

HTB-38 cells = test: Western blot of protein biomarkers
Procedure: as §1, §2

PC-9 cells = test: Western blot of protein biomarkers; conditions: trametinib (100 nM)+TNF-α (10 ng/mL), 24 hours
Procedure: as §1, §2

[1] = system: panel of cell lines that included NSCLC, HNSCC, melanoma, and CRC; test: WST8 in vitro sensitivity to MTAs with and without EM
Procedure: Day 1: cells were harvested cells from flask (4 mL accutase for T175 for 3-5 minutes), and spin down for 5 mins at 1200 rpm. The supernatant was poured off, and the pellet gently resuspended in 1 mL media. Countess counts were performed, and the cells were diluted in media (10% FBS). With multi-channel pipette, 2500 cells were seeded in 100 uL of media (10% FBS) in each well of 96 well plate. The cells were let to adhere and grow for 24 hours. Day 2: serial drug dilutions of MTAs+/−EMs at 5× of concentrations (as done above) were performed in media (10% FBS). 20 uL of media form each well of the 96 well plate (80 uL media left in wells) was removed, and 20 uL of appropriate 5× drug dilutions was added to each respective well (for a 1× conc). The cells were incubated with drug for 72 hours in 37C incubator. Day 5: 10 uL of WST-8 reagent was added to each well of the 96 well plate and mixed gently. the plates were incubated up to 4 hours at 37C in dark, and absorbance readings were taken at […] and 600 nm wavelengths at 1, 2, 3 and 4h, until control absorbance levels were 1.5-2.0).
We used a panel of cell lines that included NSCLC, HNSCC, melanoma, and CRC. These cell lines are a good model system harboring similar (epi)genetic changes found in patients' tumors. We used the WST8 assay to determine the in vitro sensitivity to various MTAs with and without EM1.

Ca9-22 cells = test: Western blot of protein biomarkers; conditions: compared to either alone
Procedure: as §1, §2

PE/CA-PJ15 cells = test: Western blot of protein biomarkers; conditions: osimertinib (100 nM)+IFN-α (200 ng/mL)
Procedure: as §1, §2

[2] = compared to either therapy alone
[3] = osimertinib (1000 nM)+IFN-α (200 ng/mL)

Molecule: tumor necrosis factor-alpha [EM2]
- cell apoptosis (changes in nuclear staining of Bcl2, ICC) (EGFR WT sample (H1581)): promoted cell apoptosis
- PARP cleavage (BICR-16 cells; compared to MTA and EM alone): very strong PARP cleavage
- LC3II over LC3I expression (BICR-16 cells; compared to either alone): marked increase in LC3II over LC3I expression
- Ki67 degradation and/or fragmentation pattern (BICR-16 cells; [2]): marked increase in the distinct degradation and/or fragmentation pattern of Ki67
- LC3II expression (HTB-38 cells; IFN-γ (100 ng/mL)+TNF-α): increased expression
- p62 expression (HTB-38 cells; IFN-γ (100 ng/mL)+TNF-α): increased expression
- PARP cleavage (HTB-38 cells; IFN-γ (100 ng/mL)+TNF-α (10 ng/mL), 24 hours, compared to MTA and EM alone): very strong PARP cleavage
- Ki67 degradation and/or fragmentation pattern (HTB-38 cells; IFN-γ (100 ng/mL)+TNF-α (10 ng/mL), 24 hours, compared to either therapy alone): marked increase in the distinct degradation and/or fragmentation pattern of Ki67
- PARP cleavage (PC-9 cells; compared to MTA and EM alone): very strong PARP cleavage
- p-AKT (Ser473) expression (PC-9 cells; compared to either MTA or EM alone): strong reduction in p-AKT (Ser473) expression
- Ki67 degradation and/or fragmentation pattern (PC-9 cells; [2]): marked increase in the distinct degradation and/or fragmentation pattern of Ki67
- response enhancement (in vitro sensitivity to various MTAs with and without EM, WST8) [1]: no, minimal and strong response enhancement

B1: interferon-alpha-1 (protein, UniProt P01562 24-189, looked up)
Interferon alpha-1/13: CDLPETHSLDNRRTLMLLAQMSRISPSSCLMDRHDFGFPQEEFDGNQFQKAPAISVLHELIQQIFNLFTTKDSSAAWDEDLLDKFCTELYQQLNDLEACVMQEERVGETPLMNADSILAVKKYFRRITLYLTEKKYSPCAWEVVRAEIMRSLSLSTNLQERLRRKE
notes: enhancer molecule, cytokine purchased from Sigma
- LC3II over LC3I expression (Ca9-22 cells; GSK-458 (10 nM)+IFN-α (200 ng/mL), 24 hours): marked increase in LC3II over LC3I expression
- LC3II expression (Ca9-22 cells; [3]): LC3II upregulation
- p62 expression (Ca9-22 cells; [3]): reduction in p62
- p62 expression (PE/CA-PJ15 cells): increased expression
- LC3II over LC3I expression (PE/CA-PJ15 cells; 24 hours, compared to either alone): marked increase in LC3II over LC3I expression
